In patent US20210393745A1, “OLIGOMER EXTENDED INSULIN-FC CONJUGATES AND THEIR MEDICAL USE” (Novo Nordisk A/S, priority 2018, published 2021):

How the values were obtained:
[1] = target: T1, membrane-associated human IGF-1R (Homo sapiens, UniProt P08069); experiment: IGF-1 receptor affinity on membrane associated receptors (SPA); assay type: binding; conditions: membrane-associated IGF-1R, relative to human insulin
T1 construct: expressed in transfected cells; host or cells: BHK cells, pZem219B vector, plasma membrane preparation
T1 sequence (P08069 31-736 limits assumed): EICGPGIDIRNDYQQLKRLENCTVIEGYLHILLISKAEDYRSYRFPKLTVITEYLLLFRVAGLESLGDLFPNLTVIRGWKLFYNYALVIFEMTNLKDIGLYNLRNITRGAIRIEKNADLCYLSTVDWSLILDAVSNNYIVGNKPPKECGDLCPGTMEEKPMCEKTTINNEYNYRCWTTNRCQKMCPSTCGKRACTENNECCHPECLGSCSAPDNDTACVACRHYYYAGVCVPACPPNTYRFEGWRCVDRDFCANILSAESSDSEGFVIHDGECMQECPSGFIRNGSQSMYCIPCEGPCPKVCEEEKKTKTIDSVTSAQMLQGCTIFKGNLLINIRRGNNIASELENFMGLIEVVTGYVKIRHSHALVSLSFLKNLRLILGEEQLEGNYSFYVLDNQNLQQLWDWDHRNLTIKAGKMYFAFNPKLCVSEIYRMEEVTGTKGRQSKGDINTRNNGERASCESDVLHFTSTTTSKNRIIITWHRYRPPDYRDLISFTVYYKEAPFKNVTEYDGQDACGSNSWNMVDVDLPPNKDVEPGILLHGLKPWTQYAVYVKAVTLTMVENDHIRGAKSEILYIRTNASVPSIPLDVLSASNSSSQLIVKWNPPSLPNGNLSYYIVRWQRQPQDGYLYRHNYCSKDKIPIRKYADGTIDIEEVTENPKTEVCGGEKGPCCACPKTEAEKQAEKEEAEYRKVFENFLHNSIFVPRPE
T1 sequence (P08069 741-1367 partner limits assumed): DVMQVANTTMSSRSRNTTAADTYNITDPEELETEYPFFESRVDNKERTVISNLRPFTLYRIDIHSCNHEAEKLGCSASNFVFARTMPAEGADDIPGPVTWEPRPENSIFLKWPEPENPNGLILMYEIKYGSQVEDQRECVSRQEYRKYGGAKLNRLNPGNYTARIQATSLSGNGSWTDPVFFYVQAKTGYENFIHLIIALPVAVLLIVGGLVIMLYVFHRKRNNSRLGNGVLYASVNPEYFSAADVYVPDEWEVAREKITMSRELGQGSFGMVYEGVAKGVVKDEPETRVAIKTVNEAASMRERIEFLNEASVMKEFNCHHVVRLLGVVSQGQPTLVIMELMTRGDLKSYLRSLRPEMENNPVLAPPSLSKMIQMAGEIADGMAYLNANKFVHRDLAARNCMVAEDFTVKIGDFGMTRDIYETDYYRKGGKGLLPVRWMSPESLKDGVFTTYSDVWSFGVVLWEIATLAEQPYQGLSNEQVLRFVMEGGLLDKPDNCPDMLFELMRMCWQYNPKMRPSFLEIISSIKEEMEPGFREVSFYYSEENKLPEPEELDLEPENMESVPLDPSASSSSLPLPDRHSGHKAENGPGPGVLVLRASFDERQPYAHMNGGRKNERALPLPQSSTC
Procedure: (§1) Membrane-associated human IR and IGF-1R are purified from BHK cells stably transfected with the pZem219B vector containing either the human IR-A, IR-B or IGF-IR insert. BHK cells are harvested and homogenized in ice-cold buffer (25 mM HEPES pH 7.4, 25 mM CaCl2 and 1 mM MgCl2, 250 mg/L bacitracin, 0.1 mM Pefablock). The homogenates are layered on a 41% (w/v) sucrose cushion and centrifuged for 75 minutes at 95000 g at 4° C. The plasma membranes are collected, diluted 1:5 with buffer (as above) and centrifuged again for 45 minutes at 40000 g at 4° C. The pellets are resuspended in a minimal volume of buffer and drawn through a needle (size 23) three times before storage at −80° C. until usage. The relative binding affinity for either of the membrane-associated human IR-A, IR-B or IGF-1R is determined by competition binding in a SPA setup. IR assays are performed in duplicate in 96-well OptiPlates (Perkin-Elmer Life Sciences). Membrane protein is incubated with gentle agitation for 150 minutes at 25° C. with 50 pM [^125IA14Y]-human insulin in a total volume of […] assay buffer (50 mM HEPES, 150 mM NaCl, 5 mM MgSO4, 0.01% Triton X-100, 0.1% (w/v) HSA (Sigma A1887), Complete EDTA-free protease inhibitors), 50 μg of wheat germ agglutinate (WGA)-coated PVT microspheres (GE Healthcare) and increasing concentrations of ligand. Assays are terminated by centrifugation of the plate at 2000 rpm for 2 minutes and bound radioactivity quantified by counting on a TopCount NXT (Perkin-Elmer Life Sciences).
(§2) IGF-1R assays are conducted essentially as for the IR binding assays except that membrane-associated IGF-1R and 50 pM [^125I-Tyr31]-human IGF-1 were employed.

primary rat adipocytes = experiment: Lipogenesis in rat adipocytes; assay type: cell-based; conditions: relative to human insulin
Procedure: As a measure of in vitro potency of the insulin conjugatess of the invention, lipogenesis can be used. Primary rat adipocytes are isolated from the epididymale fat pads and incubated with 3H-glucose in buffer containing e.g. 0.1% fat free HSA and either standard (human insulin, HI) or insulin conjugates of the invention. The labelled glucose is converted into extractable lipids in a dose dependent way, resulting in full dose response curves. The result is expressed as relative potency (%) with 95% confidence limits of insulin of the invention compared to standard (HI).

[2] = system: normal Sprague-Dawley rats; experiment: In vivo PD, blood glucose lowering in normal rats; parameters: species or system Sprague-Dawley rat; conditions: s.c. 30 nmol/kg, baseline corrected BG up to 10 days, difference from vehicle, mean
Procedure: (§3) Insulin-Fc conjugates were tested in vivo by subcutaneous (s.c.) administration to normal and streptozotocin (STZ) treated male Sprague-Dawley (SD) rats.
(§4) The rats were dosed s.c. in the neck region with a dose of 30 nmol/kg of the insulin-Fc conjugates. Blood samples for blood glucose and plasma insulin analysis were collected from the tongue vein up to 10 days post dosing. The insulin-Fc concentrations were measured by immuno-assay (LLOQ=1000 pM) and the resulting half-life values after s.c. dosing are shown in Table 4. The PK profiles for normal rats are shown in FIG. 3 and for streptozotocin treated rats in FIG. 6. Blood glucose (BG) was measured using Biosen S Line (EKF) and the BG and baseline corrected BG profiles for normal rats are shown in FIGS. 1 and 2 and for streptozotocin treated rats in FIGS. 4 and 5 respectively.

[3] = In vivo PK after s.c. dosing, streptozotocin treated rats; parameters: species or system Sprague-Dawley rat; conditions: s.c. 30 nmol/kg, mean value
Procedure: as §3, §4

[4] = Stability study: purity by anionic exchange chromatography; assay type: physicochemical; conditions: purity %(5° C.) − purity %(30° C.), 30 μM, pH 7.4
Procedure: Samples for stability studies were prepared by weighing out 8-10 mg freeze-dried material. The freeze-dried material was solubilized to […] in a premade solution A (5 mM phophate (pH 7.4), 140 mM NaCl and 70 ppm polysorbate 20). Protein concentration was determined using absorbance at 280 nm using a Nanodrop 2000 (Thermo Fisher Scientific Inc.) and theoretical extinction coefficients. Dilution into solution A was done to reach a final concentration of 30 μM.
Anionic exchange chromatography was performed on an Ultra-Performance Liquid Chromatography system (Waters Acquity H-Class) equipped with a fluorescence detector (Waters Acquity FLR Detector). A Bio SAX column with dimensions 50×4.6 mm from Agilent, kept at 30° C., was used in gradient elution mode. Mobile phase A was 5/95 (v/v), acetonitrile/water with 25 mM BIS-TRIS propane, pH 7.3 and mobile phase B was 5/95 (v/v), acetonitrile/water with 25 mM BIS-TRIS propane and 350 mM NaCl, pH 7.3. Injection volume was 3 μL. The flow rate was kept at 0.5 mL/min with a linear gradient from 10 to 47% B in 3 min followed by a linear gradient from 47 to 55% B in 30 min. Peaks were detected with an emission wavelength of […] and data processing is performed with the EMPOWER 3 software from Waters. Samples were analysed for purity as percent API in relation to all other species.
Reported as Δ purity %=purity %(5° C.)−purity % (30° C.).
Stability of Fc-insulin analogues was evaluated by comparing purity from anion exchange chromatography and formation of high molecular weight products (HMWP) at 5° C. (control) versus 30° C. (heat induced stress). […] The amount of HMWP was decreased by 0.5-2% in the stressed sample versus the control, i.e. some aggregated material has disassociated during incubation at 30° C.

[5] = system: streptozotocin treated Sprague-Dawley rats; experiment: In vivo PD, blood glucose lowering in streptozotocin treated rats; parameters: species or system Sprague-Dawley rat; conditions: s.c. 30 nmol/kg, baseline corrected BG up to 10 days, difference from vehicle, mean
Procedure: as §3, §4

hFcRn ectodomain = target: T2, hFcRn ectodomain (Homo sapiens, UniProt P55899); experiment: SPR analysis of the binding of hFcRn ECD; conditions: pH 6.0, 25° C., steady-state fitting; read-out: Kn (μM), binding of hFcRn ECD
T2 construct: the hFcRn ectodomain diluted at 4000 nM with 2-fold serial dilutions was injected
T2 sequence (P55899 24-297 limits assumed): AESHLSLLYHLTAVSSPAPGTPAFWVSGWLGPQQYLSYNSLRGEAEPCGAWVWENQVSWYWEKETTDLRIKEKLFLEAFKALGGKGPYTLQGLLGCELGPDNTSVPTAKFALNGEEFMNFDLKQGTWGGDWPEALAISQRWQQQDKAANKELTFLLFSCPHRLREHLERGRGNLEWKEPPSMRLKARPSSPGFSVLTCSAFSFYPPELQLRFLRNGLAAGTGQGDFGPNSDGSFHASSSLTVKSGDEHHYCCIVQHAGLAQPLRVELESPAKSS
T2 sequence (P61769 21-119 partner): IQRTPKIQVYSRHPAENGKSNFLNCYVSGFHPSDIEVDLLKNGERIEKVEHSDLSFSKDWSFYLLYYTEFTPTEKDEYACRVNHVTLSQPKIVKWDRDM
Procedure: First, the three Insulin-Fc samples diluted at 10 ug/ml and the wild-type hIgG4 Fc (produced in HEK293 cells, i.e. glycosylated) diluted at 30 ug/ml in 10 mM sodium acetate (pH 4.5) (GE Healthcare, catalogue #BR100350) were immobilized on a CMD50L sensor chip (XanTec Bioanalytics GmbH) at spot 2 or 4 at 70-90 RU in each used flow cell via amine coupling with 1×HBS-EP+ (pH 7.4) (GE Healthcare, catalogue #BR-1006-69) used as the running buffer. The wild-type hIgG4 Fc was used as the control sample. In each used flow cell, spots 2, 3 and 4 were activated by 100 mM N-hydroxysuccinimide (NHS) and 400 mM N-ethyl-N′-dimethylaminopropyl carbodiimide hydrochloride (EDC) mixed at equal volume before the immobilization and blocked by 1 M ethanolamine hydrochloride-NaOH (pH 8.5) after the immobilization. NHS, EDC and ethanolamine were obtained from the Amine Coupling Kit, type 2 (GE Healthcare, catalogue #BR100633).
Next, the hFcRn ectodomain diluted at 4000 nM with 2-fold serial dilutions was injected through each used flow cell for 60 sec to allow for binding of the hFcRn ectodomain to the Insulin-Fc conjugates and wild-type hIgG4 Fc samples immobilized on the sensor chip, followed by dissociation for 180 sec. 1×PBS-EP+ (pH 6.0) was used as the dilution buffer for the hFcRn ectodomain and the running buffer in each binding cycle at the flow rate of 30 ul/min. After each binding cycle, the sensor chip was regenerated with a 60 sec injection of 1×PBS-EP+ (pH 7.4) at the flow rate of 30 ul/min. The 1×PBS-EP+ (pH 7.4) buffer was prepared by diluting 0.5 M EDTA (pH 8.0) (Invitrogen, catalogue #15575038) at 3 mM into 1×PBS-P+ (GE Healthcare, catalogue #28995084). The 1×PBS-EP+ (pH 6.0) buffer was prepared by adjusting the pH of the 1×PBS-EP+ buffer from 7.4 to 6.0 using ˜10 M HCl. The affinities (equilibrium dissociation constants, KD) were determined via steady-state fitting of the binding curves using the 1:1 binding model in Biacore 4000 Evaluation Software 1.0 (GE Healthcare).

[6] = target: T3, membrane-associated human IR-B (Homo sapiens, UniProt P06213); experiment: Insulin receptor affinity on membrane associated receptors (SPA), IR-B; assay type: binding; conditions: relative to human insulin
T3 construct: expressed in transfected cells; host or cells: BHK cells, pZem219B vector, plasma membrane preparation
T3 sequence (P06213 28-758 limits assumed): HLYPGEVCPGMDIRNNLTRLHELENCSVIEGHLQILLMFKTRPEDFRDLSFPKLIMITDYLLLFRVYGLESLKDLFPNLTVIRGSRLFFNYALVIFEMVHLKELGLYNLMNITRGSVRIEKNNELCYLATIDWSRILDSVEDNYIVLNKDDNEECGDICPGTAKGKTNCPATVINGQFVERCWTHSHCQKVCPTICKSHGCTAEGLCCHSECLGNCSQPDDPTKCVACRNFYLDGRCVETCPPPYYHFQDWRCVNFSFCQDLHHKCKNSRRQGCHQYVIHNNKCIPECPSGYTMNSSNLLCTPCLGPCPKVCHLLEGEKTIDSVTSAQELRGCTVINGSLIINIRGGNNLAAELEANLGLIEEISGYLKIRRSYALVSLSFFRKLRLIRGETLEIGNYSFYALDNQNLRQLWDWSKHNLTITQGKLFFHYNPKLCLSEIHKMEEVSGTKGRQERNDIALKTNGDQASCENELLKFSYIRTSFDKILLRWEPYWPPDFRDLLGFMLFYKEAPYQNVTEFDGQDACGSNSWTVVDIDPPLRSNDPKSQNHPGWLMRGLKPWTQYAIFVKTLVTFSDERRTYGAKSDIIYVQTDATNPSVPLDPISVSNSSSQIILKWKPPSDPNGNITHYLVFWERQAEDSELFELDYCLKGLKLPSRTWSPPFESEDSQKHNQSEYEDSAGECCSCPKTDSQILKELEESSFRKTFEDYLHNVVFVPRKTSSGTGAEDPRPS
T3 sequence (P06213 763-1382 partner limits assumed): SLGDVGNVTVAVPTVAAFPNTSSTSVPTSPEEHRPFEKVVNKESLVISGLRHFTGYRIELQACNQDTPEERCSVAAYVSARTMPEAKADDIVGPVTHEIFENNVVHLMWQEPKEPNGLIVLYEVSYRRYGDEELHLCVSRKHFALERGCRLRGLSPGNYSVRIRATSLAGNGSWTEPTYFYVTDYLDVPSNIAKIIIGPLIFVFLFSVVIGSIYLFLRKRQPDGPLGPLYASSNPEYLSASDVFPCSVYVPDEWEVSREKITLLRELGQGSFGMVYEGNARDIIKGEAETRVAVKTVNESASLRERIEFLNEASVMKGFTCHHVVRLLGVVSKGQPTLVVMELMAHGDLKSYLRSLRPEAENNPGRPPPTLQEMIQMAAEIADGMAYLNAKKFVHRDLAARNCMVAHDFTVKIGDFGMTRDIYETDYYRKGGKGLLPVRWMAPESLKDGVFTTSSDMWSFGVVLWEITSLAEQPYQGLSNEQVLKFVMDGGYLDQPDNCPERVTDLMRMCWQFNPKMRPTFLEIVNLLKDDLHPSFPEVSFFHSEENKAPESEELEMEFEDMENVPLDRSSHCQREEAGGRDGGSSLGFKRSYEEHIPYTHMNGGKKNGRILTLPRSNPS
Procedure: as §1, §2

[7] = target: T4, membrane-associated human IR-A (Homo sapiens, UniProt P06213); experiment: Insulin receptor affinity on membrane associated receptors (SPA), IR-A; assay type: binding; conditions: relative to human insulin
T4 construct: expressed in transfected cells; host or cells: BHK cells, pZem219B vector, plasma membrane preparation
T4 sequence (P06213 28-1370 isoform P06213-2 limits assumed): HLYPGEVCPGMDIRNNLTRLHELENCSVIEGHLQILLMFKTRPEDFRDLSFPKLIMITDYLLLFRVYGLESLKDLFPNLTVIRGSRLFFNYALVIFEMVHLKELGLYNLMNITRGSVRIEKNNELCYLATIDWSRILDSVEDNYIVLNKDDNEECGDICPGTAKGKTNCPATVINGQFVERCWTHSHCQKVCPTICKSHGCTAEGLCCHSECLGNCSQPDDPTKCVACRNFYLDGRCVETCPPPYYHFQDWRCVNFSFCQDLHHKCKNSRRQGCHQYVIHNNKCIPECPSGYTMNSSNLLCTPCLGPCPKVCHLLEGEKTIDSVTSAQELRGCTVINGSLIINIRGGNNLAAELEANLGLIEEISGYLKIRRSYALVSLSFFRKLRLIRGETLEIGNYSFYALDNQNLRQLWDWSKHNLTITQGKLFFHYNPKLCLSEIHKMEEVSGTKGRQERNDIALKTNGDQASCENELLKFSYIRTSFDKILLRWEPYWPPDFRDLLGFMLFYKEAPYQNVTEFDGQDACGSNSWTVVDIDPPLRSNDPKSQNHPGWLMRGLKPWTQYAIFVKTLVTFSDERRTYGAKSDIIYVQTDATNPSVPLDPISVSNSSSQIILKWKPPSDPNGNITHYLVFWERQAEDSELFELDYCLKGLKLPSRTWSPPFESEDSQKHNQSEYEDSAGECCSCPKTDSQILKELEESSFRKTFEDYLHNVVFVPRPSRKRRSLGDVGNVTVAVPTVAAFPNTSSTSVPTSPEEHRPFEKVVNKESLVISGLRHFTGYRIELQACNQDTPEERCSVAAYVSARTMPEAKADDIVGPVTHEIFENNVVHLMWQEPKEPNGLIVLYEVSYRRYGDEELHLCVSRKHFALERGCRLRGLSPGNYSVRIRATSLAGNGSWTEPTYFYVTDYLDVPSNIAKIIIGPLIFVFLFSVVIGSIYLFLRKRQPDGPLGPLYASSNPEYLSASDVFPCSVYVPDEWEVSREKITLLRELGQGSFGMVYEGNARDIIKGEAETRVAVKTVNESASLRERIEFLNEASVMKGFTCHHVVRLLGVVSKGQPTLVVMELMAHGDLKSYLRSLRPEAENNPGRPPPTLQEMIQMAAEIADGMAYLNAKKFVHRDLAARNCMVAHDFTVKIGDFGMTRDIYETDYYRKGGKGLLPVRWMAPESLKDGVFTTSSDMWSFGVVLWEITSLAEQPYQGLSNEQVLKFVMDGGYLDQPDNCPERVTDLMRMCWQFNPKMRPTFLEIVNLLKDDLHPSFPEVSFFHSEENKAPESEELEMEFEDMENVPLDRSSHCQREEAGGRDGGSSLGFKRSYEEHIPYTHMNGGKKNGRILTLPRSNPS
T4 sequence (P06213 763-1382 partner limits assumed): as the sequence (P06213 763-1382 partner limits assumed) above
Procedure: as §1, §2

[8] = In vivo PK after s.c. dosing, normal rats; parameters: species or system Sprague-Dawley rat; conditions: s.c. 30 nmol/kg, mean value
Procedure: as §3, §4

(A14E, A21G, A22(GQEP)11, A66G, A67Q, A68E, A69K^, A70P, B16E, B25H, B29R, desB30 human insulin)/(226A, 227G, 228P, 234A, 235K, 297E, 315Q, 384Q, des447 hIgG4-Fc(226-447))3,5-bis[(2-acetyl)amino]benzoyl Conjugate [Example 5.3]
IGF1R mem Rel. aff. (%) [1]: 0.29%
Lipogenesis Rel. pot. (%) (primary rat adipocytes): 0.64%
AOCBG normal rat [2]: 248 mM·h
PK STZ rat [T1/2, s.c. (h)] [3]: 50 h
Δ purity [4]: 4.3%
AOCBG STZ rat [5]: 2771 mM·h
Kd (hFcRn ectodomain): 1.5 µM
hIR-B mem Rel. aff. (%) [6]: 0.59%
hIR-A mem Rel. aff. (%) [7]: 0.66%
PK normal rat [T1/2, s.c. (h)] [8]: 48 h
